± gives the expanded uncertainty stated by the source.
Assay: molar heat capacity at constant pressure
Conditions: 101 kPa, Liquid, Small sample (50 mg) DSC

SMILES | molar heat capacity at constant pressure (298.15 K) [J/K/mol] | molar heat capacity at constant pressure (303.15 K) [J/K/mol] | molar heat capacity at constant pressure (308.15 K) [J/K/mol] | molar heat capacity at constant pressure (313.15 K) [J/K/mol] | molar heat capacity at constant pressure (318.15 K) [J/K/mol] | molar heat capacity at constant pressure (323.15 K) [J/K/mol] | molar heat capacity at constant pressure (328.15 K) [J/K/mol] | molar heat capacity at constant pressure (333.15 K) [J/K/mol] | molar heat capacity at constant pressure (338.15 K) [J/K/mol] | molar heat capacity at constant pressure (343.15 K) [J/K/mol] | molar heat capacity at constant pressure (348.15 K) [J/K/mol] | molar heat capacity at constant pressure (353.15 K) [J/K/mol]
NCCCN1CCOCC1 [N-(3-aminopropyl)morpholine] | 296.2 ± 4.6 | 298.2 ± 4.7 | 299.6 ± 4.7 | 301.2 ± 4.7 | 302.8 ± 4.7 | 304.5 ± 4.7 | 306.1 ± 4.8 | 307.9 ± 4.8 | 309.6 ± 4.8 | 311.3 ± 4.8 | 312.7 ± 4.9 | 313.4 ± 4.9
OCCN1CCNCC1 [N-(2-hydroxyethyl)piperazine] | 285 ± 4.5 | 289.9 ± 4.6 | 292.9 ± 4.6 | 296 ± 4.6 | 298.9 ± 4.7 | 301.7 ± 4.7 | 305 ± 4.8 | 308.1 ± 4.8 | 311 ± 4.8 | 313.9 ± 4.9 | 316.5 ± 4.9 | 319 ± 4.9
OCCN1CCOCC1 [4-morpholineethanol] | 263.9 ± 4.2 | 265.3 ± 4.3 | 267.1 ± 4.3 | 269.2 ± 4.3 | 270.8 ± 4.3 | 272.6 ± 4.3 | 274.3 ± 4.4 | 276.2 ± 4.4 | 278.7 ± 4.4 | 281 ± 4.4 | 283.2 ± 4.5 | 284.9 ± 4.5
CN1CCN(C)CC1 [1,4-dimethylpiperazine] | 216.5 ± 3.7 | 221.7 ± 3.7 | 222.1 ± 3.7 | 223.4 ± 3.7 | 224.6 ± 3.8 | 225.3 ± 3.8 | 225.7 ± 3.8 | 227.5 ± 3.8 | 228.5 ± 3.8 | 229.6 ± 3.8 | 231.7 ± 3.8 | 235.9 ± 3.9
CN1CCNCC1 [N-methylpiperazine] | 213.9 ± 3.6 | 214.4 ± 3.6 | 215 ± 3.6 | 215.7 ± 3.6 | 216.4 ± 3.7 | 216.9 ± 3.7 | 217.3 ± 3.7 | 217.2 ± 3.7 | 215.5 ± 3.6 | 216.2 ± 3.7 | 217.6 ± 3.7 | 218 ± 3.7
